Data reported in ChEMBL document CHEMBL4334471, “Discovery of 1,8-disubstituted-[1,2,3]triazolo[4,5-c]quinoline derivatives as a new class of Hippo signaling pathway inhibitors” (Bioorg Med Chem Lett, 2019).

Columns and labels:
Homo sapiens [1] = species: Homo sapiens; test: Inhibition of recombinant human MER H628Q/R794A mutant (557 to 882 residues) assessed as residual activity at 10 uM using KKLNRTLSFAEPG as substrate incubated for 40 mins in presence of [gamma-33ATP by scintillation counting based radiometry assay relative to control
[2] = target: Ephrin type-A receptor 3 (Homo sapiens) (UniProt P29320); test: Inhibition of recombinant human EphA3 (578 to end residues) assessed as residual activity at 10 uM using poly(Glu, Tyr) 4:1 as substrate at 40 mins in presence of [gamma-33ATP] by scintillation counting based radiometry assay relative to control
Homo sapiens [3] = species: Homo sapiens; test: Inhibition of recombinant human A-Raf Y301D/ Y302D mutant (273 to end residues) assessed as residual activity at 10 uM using myelin basic protein as substrate incubated for 40 mins in presence of [gamma-33ATP] by scintillation counting based radiometry assay relative to control
[4] = target: Serine/threonine-protein kinase WNK4 (Homo sapiens) (UniProt Q96J92); test: Inhibition of recombinant human WNK4 (A31 to D461 residues) assessed as residual activity at 10 uM using myelin basic protein as substrate incubated for 40 mins in presence of [gamma33P]ATP by scintillation counting based radiometry assay relative to control
Homo sapiens [5] = species: Homo sapiens; test: Inhibition of recombinant full-length human ATR/ATRIP M211T mutant assessed as residual activity at 10 uM using GST-cMyc-p53 as substrate measured after 40 mins by fluorescence assay relative to control
[6] = target: Myosin light chain kinase 2, skeletal/cardiac muscle (Homo sapiens) (UniProt Q9H1R3); test: Inhibition of recombinant full length human MYLK2 assessed as residual activity at 10 uM using KKLNRTLSFAEPG as substrate measured after 40 mins in presence of [gamma33P]ATP by scintillation counting based radiometry assay relative to control
[7] = tested on: Proto-oncogene tyrosine-protein kinase receptor Ret (Homo sapiens), P07949 [V804M]; test: Inhibition of recombinant human Ret V804M mutant (658 to end residues) assessed as residual activity at 10 uM using KKKVSRSGLYRSPSMPENLNRPR as substrate incubated for 40 mins in presence of [gamma33P]ATP by scintillation counting based radiometry assay relative to control
[8] = target: Serine/threonine-protein kinase tousled-like 1 (Homo sapiens) (UniProt Q9UKI8); test: Inhibition of recombinant full-length human TLK1 assessed as residual activity at 10 uM using casein as substrate incubated for 40 mins in presence of [gamma33P]ATP by scintillation counting based radiometry assay relative to control
[9] = target: Tyrosine-protein kinase Lck (Homo sapiens) (UniProt P06239); test: Inhibition of recombinant full length human LCK assessed as residual activity at 10 uM using KVEKIGEGTYGVV as substrate after 40 mins in presence of [gamma-33ATP] by scintillation counting based radiometry assay relative to control
[10] = target: Inhibitor of nuclear factor kappa-B kinase subunit beta (Homo sapiens) (UniProt O14920); test: Inhibition of full length human IKKbeta assessed as residual activity at 10 uM using peptide as substrate after 40 mins by [gamma-33ATP] radiometric assay relative to control
[11] = target: NUAK family SNF1-like kinase 1 (Homo sapiens) (UniProt O60285); test: Inhibition of recombinant human ARK5 (2 to end residues) assessed as residual activity at 10 uM using KKKVSRSGLYRSPSMPENLNRPR as substrate incubated for 40 mins in presence of [gamma-33ATP] by scintillation counting based radiometry assay relative to control
[12] = target: Eukaryotic translation initiation factor 2-alpha kinase 1 (Homo sapiens) (UniProt Q9BQI3); test: Inhibition of human HRI (140 to end residues) assessed as residual activity at 10 uM using RSRSRSRSRSRSR as substrate after 120 mins by [gamma-33ATP] radiometric assay relative to control
[13] = target: Wee1-like protein kinase 2 (Homo sapiens) (UniProt P0C1S8); test: Inhibition of recombinant full length human WEE1b assessed as residual activity at 10 uM using LSNLYHQGKFLQTFCGSPLYRRR as substrate incubated for 40 mins in presence of [gamma33P]ATP by scintillation counting based radiometry assay relative to control
[14] = target: Serine/threonine-protein kinase 32B (Homo sapiens) (UniProt Q9NY57); test: Inhibition of recombinant human full length STK32B assessed as residual activity at 10 uM using casein as substrate incubated for 40 mins in presence of [gamma33P]ATP by scintillation counting based radiometry assay relative to control
[15] = target: Mitogen-activated protein kinase 9 (Homo sapiens) (UniProt P45984); test: Inhibition of human JNK2alpha2 assessed as residual activity at 10 uM using ATF2 as substrate after 40 mins by [gamma-33ATP] radiometric assay relative to control
[16] = target: Serine/threonine-protein kinase/endoribonuclease IRE1 (Homo sapiens) (UniProt O75460); test: Inhibition of human IRE1 (465 to end residues) assessed as residual activity at 10 uM using myelin basic protein as substrate after 40 mins by [gamma-33ATP] radiometric assay relative to control
Mus musculus = species: Mus musculus; test: Inhibition of recombinant full-length mouse PI3K p110/p85 H1047R mutant assessed as residual activity at 10 uM using phosphatidylinositol-4, 5-bisphosphate as substrate incubated for 40 mins in presence of [gamma33P]ATP by scintillation counting based radiometry assay relative to control
[17] = target: Serine/threonine-protein kinase 3 (Homo sapiens) (UniProt Q13188); test: Inhibition of recombinant human MST2 (2 to end residues) assessed as residual activity at 10 uM using myelin basic protein as substrate measured after 40 mins in presence of [gamma33P]ATP by scintillation counting based radiometry assay relative to control
[18] = target: TGF-beta receptor type-2 (Homo sapiens) (UniProt P37173); test: Inhibition of recombinant human TGFBR2 (188 to end residues) assessed as residual activity at 10 uM using myelin basic protein as substrate incubated for 120 mins in presence of [gamma33P]ATP by scintillation counting based radiometry assay relative to control
[19] = target: Calcium/calmodulin-dependent protein kinase type II subunit beta (Homo sapiens) (UniProt Q13554); test: Inhibition of recombinant human CaMK2beta (1 to 315 residues) assessed as residual activity at 10 uM using […] incubated for 40 mins in presence of [gamma-33ATP] by scintillation counting based radiometry assay relative to control
[20] = target: Mitogen-activated protein kinase kinase kinase kinase 5 (Homo sapiens) (UniProt Q9Y4K4); test: Inhibition of recombinant human MAP4K5 assessed as residual activity at 10 uM using myelin basic protein as substrate incubated for 40 mins in presence of [gamma-33ATP by scintillation counting based radiometry assay relative to control
Homo sapiens [21] = species: Homo sapiens; test: Inhibition of recombinant human Ros V2262A mutant (1883 to end residues) assessed as residual activity at 10 uM using KKKSPGEYVNIEFG as substrate incubated for 40 mins in presence of [gamma33P]ATP by scintillation counting based radiometry assay relative to control

Mitogen-activated protein kinase kinase kinase kinase 5 (Homo sapiens), sequence (Q9Y4K4 whole entry, looked up): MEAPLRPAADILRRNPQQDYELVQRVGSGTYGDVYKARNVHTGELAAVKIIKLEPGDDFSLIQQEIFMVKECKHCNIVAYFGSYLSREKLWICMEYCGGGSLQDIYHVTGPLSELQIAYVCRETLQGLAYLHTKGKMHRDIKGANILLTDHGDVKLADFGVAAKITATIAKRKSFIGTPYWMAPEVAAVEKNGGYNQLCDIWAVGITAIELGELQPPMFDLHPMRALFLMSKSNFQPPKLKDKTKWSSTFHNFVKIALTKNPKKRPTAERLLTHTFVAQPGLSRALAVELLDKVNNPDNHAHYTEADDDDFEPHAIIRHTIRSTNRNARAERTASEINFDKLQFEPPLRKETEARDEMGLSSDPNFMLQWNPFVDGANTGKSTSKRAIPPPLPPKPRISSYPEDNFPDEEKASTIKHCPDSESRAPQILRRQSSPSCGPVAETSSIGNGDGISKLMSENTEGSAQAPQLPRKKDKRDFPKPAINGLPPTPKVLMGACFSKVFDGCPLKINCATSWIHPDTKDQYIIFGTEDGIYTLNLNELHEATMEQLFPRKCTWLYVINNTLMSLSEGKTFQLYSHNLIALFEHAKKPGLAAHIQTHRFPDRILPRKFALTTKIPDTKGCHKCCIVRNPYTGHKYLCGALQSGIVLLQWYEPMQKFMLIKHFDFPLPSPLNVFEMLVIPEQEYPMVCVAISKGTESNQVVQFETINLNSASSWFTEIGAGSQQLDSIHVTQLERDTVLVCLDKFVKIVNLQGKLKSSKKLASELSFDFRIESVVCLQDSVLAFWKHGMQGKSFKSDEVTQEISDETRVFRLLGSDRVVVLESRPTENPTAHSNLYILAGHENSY
Proto-oncogene tyrosine-protein kinase receptor Ret (Homo sapiens), P07949 [V804M], sequence (P07949 whole entry V804M): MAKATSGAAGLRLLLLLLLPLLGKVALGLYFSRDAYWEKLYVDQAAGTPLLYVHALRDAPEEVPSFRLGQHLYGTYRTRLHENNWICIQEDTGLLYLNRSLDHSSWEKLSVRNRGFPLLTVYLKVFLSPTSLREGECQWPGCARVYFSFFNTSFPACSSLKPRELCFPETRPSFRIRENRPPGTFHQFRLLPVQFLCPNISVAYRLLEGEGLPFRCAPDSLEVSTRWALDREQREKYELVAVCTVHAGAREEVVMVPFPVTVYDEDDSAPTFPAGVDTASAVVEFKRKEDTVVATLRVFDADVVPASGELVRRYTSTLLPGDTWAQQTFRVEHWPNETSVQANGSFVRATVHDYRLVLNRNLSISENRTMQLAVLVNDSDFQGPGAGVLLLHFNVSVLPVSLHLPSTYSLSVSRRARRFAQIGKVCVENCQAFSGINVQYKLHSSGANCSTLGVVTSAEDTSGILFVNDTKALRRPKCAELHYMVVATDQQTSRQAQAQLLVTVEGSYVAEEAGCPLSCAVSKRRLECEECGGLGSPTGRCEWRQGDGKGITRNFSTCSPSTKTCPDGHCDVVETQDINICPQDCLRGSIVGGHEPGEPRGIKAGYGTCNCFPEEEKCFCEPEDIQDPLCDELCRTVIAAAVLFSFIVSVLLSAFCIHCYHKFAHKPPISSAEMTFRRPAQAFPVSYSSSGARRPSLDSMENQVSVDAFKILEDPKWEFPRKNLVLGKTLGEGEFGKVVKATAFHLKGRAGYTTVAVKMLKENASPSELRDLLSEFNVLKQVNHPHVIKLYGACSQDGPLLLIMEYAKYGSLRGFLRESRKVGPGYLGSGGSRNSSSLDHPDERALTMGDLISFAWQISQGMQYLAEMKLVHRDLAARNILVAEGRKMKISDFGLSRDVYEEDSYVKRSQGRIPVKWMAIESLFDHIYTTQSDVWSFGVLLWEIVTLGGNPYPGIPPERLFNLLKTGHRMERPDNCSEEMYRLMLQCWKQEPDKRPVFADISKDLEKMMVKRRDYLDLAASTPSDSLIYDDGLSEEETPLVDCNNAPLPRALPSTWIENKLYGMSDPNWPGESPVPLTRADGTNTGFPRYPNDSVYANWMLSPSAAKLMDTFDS
Serine/threonine-protein kinase 3 (Homo sapiens), sequence (Q13188 whole entry): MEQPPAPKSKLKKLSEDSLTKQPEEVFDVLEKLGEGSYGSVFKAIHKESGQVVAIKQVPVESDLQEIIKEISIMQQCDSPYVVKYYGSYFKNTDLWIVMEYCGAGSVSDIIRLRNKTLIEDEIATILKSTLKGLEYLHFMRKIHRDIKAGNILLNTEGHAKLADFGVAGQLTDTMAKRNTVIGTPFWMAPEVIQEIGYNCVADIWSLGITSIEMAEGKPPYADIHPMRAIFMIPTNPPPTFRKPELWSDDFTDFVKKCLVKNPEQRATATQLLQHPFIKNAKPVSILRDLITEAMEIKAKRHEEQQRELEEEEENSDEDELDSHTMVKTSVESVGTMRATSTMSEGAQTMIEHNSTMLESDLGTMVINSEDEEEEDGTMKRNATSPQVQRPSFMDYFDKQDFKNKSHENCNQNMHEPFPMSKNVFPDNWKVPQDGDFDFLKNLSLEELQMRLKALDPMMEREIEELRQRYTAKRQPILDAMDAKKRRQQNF
Mitogen-activated protein kinase 9 (Homo sapiens), sequence (P45984 whole entry, looked up): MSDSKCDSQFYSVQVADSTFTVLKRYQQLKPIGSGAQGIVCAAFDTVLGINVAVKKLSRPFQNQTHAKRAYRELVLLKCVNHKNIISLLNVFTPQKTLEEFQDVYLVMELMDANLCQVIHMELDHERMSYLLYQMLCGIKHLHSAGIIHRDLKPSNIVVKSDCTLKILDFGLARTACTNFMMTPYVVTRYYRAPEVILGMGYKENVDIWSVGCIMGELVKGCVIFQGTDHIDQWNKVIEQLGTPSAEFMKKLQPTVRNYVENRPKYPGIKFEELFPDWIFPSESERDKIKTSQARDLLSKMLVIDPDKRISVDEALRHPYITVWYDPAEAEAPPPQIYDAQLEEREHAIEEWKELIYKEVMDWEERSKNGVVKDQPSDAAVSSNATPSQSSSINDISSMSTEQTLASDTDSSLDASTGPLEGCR
Calcium/calmodulin-dependent protein kinase type II subunit beta (Homo sapiens), sequence (Q13554 whole entry, the tested form may be a part): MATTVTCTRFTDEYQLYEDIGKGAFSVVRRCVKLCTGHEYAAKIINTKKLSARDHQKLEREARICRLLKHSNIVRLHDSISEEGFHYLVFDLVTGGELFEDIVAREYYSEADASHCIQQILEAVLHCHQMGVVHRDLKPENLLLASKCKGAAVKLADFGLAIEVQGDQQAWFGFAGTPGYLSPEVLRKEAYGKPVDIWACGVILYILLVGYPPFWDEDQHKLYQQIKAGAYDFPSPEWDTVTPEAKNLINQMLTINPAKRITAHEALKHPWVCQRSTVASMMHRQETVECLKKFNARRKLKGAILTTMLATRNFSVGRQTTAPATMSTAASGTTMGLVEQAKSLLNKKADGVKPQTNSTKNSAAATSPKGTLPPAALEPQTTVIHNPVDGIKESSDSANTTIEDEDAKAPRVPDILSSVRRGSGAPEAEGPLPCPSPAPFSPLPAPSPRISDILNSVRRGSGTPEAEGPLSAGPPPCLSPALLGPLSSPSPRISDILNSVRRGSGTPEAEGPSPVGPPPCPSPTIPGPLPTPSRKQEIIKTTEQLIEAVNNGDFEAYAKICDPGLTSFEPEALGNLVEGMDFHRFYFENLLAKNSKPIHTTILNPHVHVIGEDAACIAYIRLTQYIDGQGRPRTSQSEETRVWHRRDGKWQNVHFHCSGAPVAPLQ
Serine/threonine-protein kinase WNK4 (Homo sapiens), sequence (Q96J92 whole entry, the tested form may be a part): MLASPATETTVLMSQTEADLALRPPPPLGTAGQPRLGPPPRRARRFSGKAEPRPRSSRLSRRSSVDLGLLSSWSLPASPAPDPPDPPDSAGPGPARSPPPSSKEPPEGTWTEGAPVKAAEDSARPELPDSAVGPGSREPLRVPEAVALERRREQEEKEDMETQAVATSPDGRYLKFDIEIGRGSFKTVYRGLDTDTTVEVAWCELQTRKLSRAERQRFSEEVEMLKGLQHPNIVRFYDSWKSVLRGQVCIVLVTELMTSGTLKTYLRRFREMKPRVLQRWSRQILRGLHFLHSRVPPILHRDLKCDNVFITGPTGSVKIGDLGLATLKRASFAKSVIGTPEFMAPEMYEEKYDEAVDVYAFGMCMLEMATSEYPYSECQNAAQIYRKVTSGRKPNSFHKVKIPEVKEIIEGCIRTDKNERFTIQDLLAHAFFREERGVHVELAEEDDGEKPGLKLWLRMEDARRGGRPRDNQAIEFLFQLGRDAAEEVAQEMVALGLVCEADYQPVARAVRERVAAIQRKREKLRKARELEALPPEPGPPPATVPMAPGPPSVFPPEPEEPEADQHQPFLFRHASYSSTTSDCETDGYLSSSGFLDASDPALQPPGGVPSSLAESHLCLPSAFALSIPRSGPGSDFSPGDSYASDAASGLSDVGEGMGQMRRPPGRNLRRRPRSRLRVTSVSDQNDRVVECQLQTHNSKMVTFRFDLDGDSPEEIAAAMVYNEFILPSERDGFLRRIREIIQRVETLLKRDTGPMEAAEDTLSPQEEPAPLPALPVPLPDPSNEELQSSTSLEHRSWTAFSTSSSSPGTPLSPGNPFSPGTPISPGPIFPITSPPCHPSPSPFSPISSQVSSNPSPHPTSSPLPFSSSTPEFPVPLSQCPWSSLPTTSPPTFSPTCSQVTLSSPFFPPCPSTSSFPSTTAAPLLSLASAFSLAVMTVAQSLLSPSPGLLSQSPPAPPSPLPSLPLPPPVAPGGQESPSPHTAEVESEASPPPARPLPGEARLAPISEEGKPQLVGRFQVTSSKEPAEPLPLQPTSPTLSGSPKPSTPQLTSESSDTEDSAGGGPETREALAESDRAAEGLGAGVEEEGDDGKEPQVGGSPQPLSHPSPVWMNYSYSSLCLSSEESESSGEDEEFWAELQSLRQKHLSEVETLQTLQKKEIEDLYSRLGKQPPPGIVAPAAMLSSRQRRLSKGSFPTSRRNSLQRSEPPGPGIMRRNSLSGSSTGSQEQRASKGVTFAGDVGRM

SMILES: C[C@@H](c1ccccc1)n1nnc2cnc3ccc(-c4cnc5[nH]ccc5c4)cc3c21
- Activity (Homo sapiens [1]): 56%
- Activity [2]: 80%
- Activity (Homo sapiens [3]): 95%
- Activity [4]: 96%
- Activity (Homo sapiens [5]): 40%
- Activity [6]: 70%
- Activity [7]: 69%
- Activity [8]: 99%
- Activity [9]: 6%
- Activity [10]: 96%
- Activity [11]: 73%
- Activity [12]: 91%
- Activity [13]: 90%
- Activity [14]: 88%
- Activity [15]: 95%
- Activity [16]: 86%
- Activity (Mus musculus): 5%
- Activity [17]: 57%
- Activity [18]: 87%
- Activity [19]: 85%
- Activity [20]: 62%
- Activity (Homo sapiens [21]): 102%
